Experiment: Deodorization evaluation with GASTEC gas detector tubes (24 hour acetic acid deodorization study)
Conditions: FIG. 1; GASTEC Detector Tube method; 24 hour equilibration; comparison with industry standard Cola®Quat SME
Excerpt: Deodorization Evaluations with GASTEC Gas Detector Tubes.
The Gas Sampling Pump Kit (GV-100S) and Gas detection tubes are manufactured by GasTec International and purchased through New Star Environmental. The pump provided in the gas sampling pump kit provides a precise vacuum on the tubes and therefore a specific volume of gas. Tubes are pre-calibrated for specific molecules, have a ppm scale on the tube, and show a color change when reacting to the target odor causing molecule. There may be corrections for temperature, humidity, or specific target molecules.
Our exemplary, general method was as follows: • 1. […] Prepare the odorant solution for the experiment. • The concentration will need to be workshopped for each odorant molecule to give an appropriate “untreated” ppm reading • 5. […]
Additionally, the method attempts to control the volume of odorant solution, volume of deodorant solution, total liquid volume, surface area of liquid, volume of headspace, and equilibration time. Ambient temperature and humidity are recorded at the start of equilibration and at the time of measurement. […] The temperature used if correction is necessary is the temperature recorded at measurement. The humidity used if correction is necessary is the humidity recorded before equilibration as this should be the main component of the humidity variations between experiments. […]

## Soyamidopropyl Morpholine Ricinoleate
  reducing odor vapors from acetic acid, compared to Cola®Quat SME standard: compare favorably

## soyamidopropyl dimethylamine ricinoleate
  reducing odor vapors from acetic acid, compared to Cola®Quat SME standard: compare favorably
